Assay [1] concerns diabetic mice (Male C57BL/Ks DB/DB mouse). The assay can be described thus: Glycated hemoglobin (HbA1c) in diabetic mice after 4 weeks, ELISA kit. The class given is in vivo. The conditions noted are these: 1 mg/kg oral daily for 4 weeks. As for the experimental part:
(§1) 6-week-old mice (Male C57BL/6J mouse, 20 g, Central Lab. Animal Inc., Seoul) and 6-week-old diabetic mice (Male C57BL/Ks DB/DB mouse, 20 g, Central Lab. Animal Inc., Seoul) were purchased and acclimated under constant temperature (25° C.) and humidity (50%) for 1 week and used for the experiment.
(§2) Mice were classified into a normal mouse control group, a diabetic mouse control group, a diabetic mouse group treated with drug (glimepiride), a diabetic mouse group treated with the Quamoclit angulata-derived novel compound (KRIBB-BH-P, 1 mg/kg), and a diabetic mouse group treated with the Quamoclit angulata-derived novel compound (KRIBB-BH-SFP, 1 mg/kg), each group consisting of five mice. The treated mice were orally administered with the drug and compounds daily for 4 weeks. The change in blood glucose in mice of each group was measured every week, and after 4 weeks, blood was collected from each mouse to measure the concentration of glycated hemoglobin.
In order to reduce the complications developed in diabetic patients under treatment, it is important to maintain the level of blood glucose at an appropriate level. Since the levels of blood glucose measured at a certain time may be changed by various factors, the test of glycated hemoglobin (HbAlc) is most widely used for the purpose of determining the long-term change in blood glucose control. […]
In order to determine the effect of the Quamoclit angulata-derived novel compound on the glycated hemoglobin, blood was collected from each mouse in the normal mouse control group, the diabetic mouse control group, the diabetic mouse group treated with the Quamoclit angulata-derived novel compound (KRIBB-BH-P, 1 mg/kg), and the diabetic mouse group treated with the Quamoclit angulata-derived novel compound (KRIBB-BH-SFP, 1 mg/kg), in which the treated mice were orally administered with the compounds daily for 4 weeks, and the levels of glycated hemoglobin were measured using an ELISA kit (Cusabio biotech, Japan).
Background: In an ELISA, binding on a coated surface is turned into a signal by an enzyme label.

Assay [2] has the same test system. The assay can be described thus: Blood glucose in diabetic mice treated orally for 4 weeks. The class given is in vivo. The conditions noted are these: 1 mg/kg oral daily for 4 weeks, vs diabetic mouse control group, FIG. 4. As for the experimental part: Normal mice and diabetic mice were treated with the Quamoclit-derived novel compound to determine the changes in diabetes indicators such as blood glucose and glycated hemoglobin.
as §1, §2

The subject of assay [3] is mice fed with high-fat diet (Male C57BL/6J). The assay can be described thus: Fasting blood glucose test in high-fat diet mice after 2 weeks of treatment. The class given is in vivo, mouse. The conditions noted are these: 1 mg/kg oral daily for 2 weeks, fasted 16 hours, FIG. 6. As for the experimental part: 5-week-old mouse (Male C57BL/6J, 19 g, Koatech, Pyeongtaek, Korea) was purchased and acclimated under constant temperature (25° C.) and humidity (50%) for 1 week and used for the experiment. Mice were classified into a group fed with normal diet and a group fed with high-fat diet and the mice were fed for 2 weeks, each group consisting of five mice.
At 2 weeks after feeding with high-fat diet, the experimental mice were classified into a normal mouse control group, a diabetic mouse control group, a diabetic mouse group treated with drug (glimepiride), a diabetic mouse group treated with the Quamoclit angulata-derived novel compound (KRIBB-BH-P, 1 mg/kg), and a diabetic mouse group treated with the Quamoclit angulata-derived novel compound (KRIBB-BH-SFP, 1 mg/kg), and the treated mice were orally administered with the drug and compounds daily for 2 weeks. Then, the mice were fasted for 16 hours, and the level of blood glucose was measured.

The next assay relates to Min6 cell line. The assay can be described thus: Stimulation of insulin secretion in mouse pancreatic beta-cell line (Insulin ELISA). The class given is cell-based. The conditions noted are these: 25 mM glucose, 0.5 ng/ml, 2 hours, vs 25 mM glucose negative control, FIG. 3. As for the experimental part: The effect of the novel compound KRIBB-BH-SFP isolated from Quamoclit angulata on the stimulation of insulin secretion was determined in a mouse pancreatic beta-cell line, Min6 cell line.
Min6 cells (ATCC, USA) were cultured in HDMEM supplemented with 15% fetal bovine serum. To induce the expression of insulin in the Min6 cell line, the cells were plated on a 96 well plate at a density of 1×10^4 cell/plate and cultured in […] DMEM (high glucose) supplemented with 15% FBS for 72 hours. Then, the cells were washed with PBS buffer solution and cultured in HBSS buffer solution for 2 hours, and then, the buffer solution was replaced with HBSS buffer solution supplemented with 25 mM glucose. Then, the novel compound […] was added to a final concentration of 0.5 ng/ml, and the cells were cultured for 2 hours to determine the stimulation of insulin expression. Meanwhile, for use as a control, cells were treated with 5.5 mM glucose such that the insulin was not expressed. For use as a negative control, cells were treated with 25 mM glucose, and the level of insulin expression in these cells was compared to determine the effect of the novel compound (KRIBB-BH-SFP) derived from Quamoclit angulata on the stimulation of insulin expression. […]

In assay [1], `CCCCCC(CCCC(O)CC(=O)O)OC1OC(COC2OC(C)C(OC3CC(O)C(O)C(C)O3)CC2O)C(O)C(O)C1OC1CC(O)C(OC2CC(O)C(OC3CC(O)C(OC)C(C)O3)C(C)O2)C(C)O1` (stereo not drawn) [KRIBB-BH-P] showed a HbA1c of 6.63 ± 0.70%. Moreover, in assay [2], the “level of blood glucose” value was “significantly reduced”. Further, the “level of blood glucose (fasting)” value in assay [3] is “significantly reduced”.
Regarding `CCCCCC(O)CCCC(O)CC(=O)O` (stereo not drawn) [KRIBB-BH-SC], the “level of insulin expression (insulin secreted from Min6 cells)” value in the assay with Min6 cell line is “increased”.
With `CCCCCC(CCCC(O)CC(=O)O)OC1OC(C)C(O)C(O)C1O` (stereo not drawn) [KRIBB-BH-SFP], in the assay with Min6 cell line, the “level of insulin expression (insulin secreted from Min6 cells)” value is “increased”. For the same compound, the HbA1c in assay [1] was 6.51 ± 0.46%. The “level of glycated hemoglobin” value in assay [1] (in words) is “significantly reduced”. In assay [2], the “level of blood glucose” value is “significantly reduced”. The “level of blood glucose (fasting)” value in assay [3] is “significantly reduced”.
